# Data: paper PMC7376718, “Flavonoids isolated from the South African weed Chromolaena odorata (Asteraceae) have pharmacological activity against uropathogens” (BMC Complementary Medicine and Therapies, 2020)
# Where two headings read alike, the source gives them in different places.
# Tests used:
# Vero monkey kidney cells = test: in vitro; conditions: Vero
# Protocol: Different concentrations of the compounds ranging from 0.003 to 0.2 mg/mL were tested for cytotoxicity against three cell lines; Vero monkey kidney, C3A and Caco2. Vero cells were grown and maintained in MEM, supplemented with 0.1% gentamicin and 5% foetal calf serum, while Caco2 and C3A cells were grown and maintained in DMEM supplemented with 10% foetal calf serum, 1% non-essential amino acids and 1% penicillin-streptomycin. All cells were incubated in a 5% CO2 incubator at 37 °C. Doxorubicin chloride was used as positive control while 10% DMSO used in dissolving the test samples was used as the negative control. The 3-(4,5-dimethylthiazol)-2,5-diphenyl tetrazolium bromide (MTT) assay described by Mosmann with modification by McGaw et al. was used to determine the cytotoxicity of the test samples. The lethal concentration (LC50) value was calculated as the concentration of tested sample resulting in a 50% reduction of absorbance compared to untreated cells. Selectivity index (SI) values were calculated against the MIC using the formula: […]
# S. aureus [1] = test: Cell adhesion to BSA-coated polystyrene surface; assay type: cell-based, Staphylococcus aureus; conditions: 1 mg/mL, polystyrene microplate
# Protocol: (§1) Anti-adhesion activity of isolated compounds was determined using the method of Namasivayam and Vivek with slight modification. To a sterile 96-well flat-bottomed polystyrene microtititre plate, 150 μL of freshly prepared 1% lyophilized powdered globular protein BSA, dissolved in water was added to all wells except for the wells allocated for media only. The plates were incubated for 30 min at 30 °C. Following incubation the wells were washed three times with PBS. To the wells, 50 μL of bacterial cultures equivalent to 1 × 10^6 cfu/mL read at 590 nm, prepared from overnight cultures were added. […] The seeded microtitre plates were incubated for 24 h at 37 °C. Non-adhered cells were washed five times with PBS at room temperature. Adhered cells were stained by the addition of 50 μL of 0.1% crystal violet and further incubation for a further 30 min at room temperature. Afterwards, wells were washed with sterile distilled water to remove excess stain followed by the addition of 10 μL of absolute ethanol to fix the adhered cells. Finally, 50 μL of 0.2% Triton X was added to the wells to lyse the cells and the absorbance was read at 570 nm using a microplate reader. Percentage adherence inhibition was calculated using the formula above.
# [2] = test system: S. aureus (ATCC 29213) biofilm; test: Biofilm inhibition, crystal violet staining; assay type: cell-based, Staphylococcus aureus; conditions: for Biofilm inhibition (verdict in words): planktonic (0 h) and biofilm (24 h) stages, 1 mg/mL and MIC level
# Protocol: (§2) A single colony of E. coli (ATCC 25922) and S. aureus (ATCC 29213), strains were each inoculated into TSB and incubated for 24 h. The biofilm inhibition assay was carried out by adopting the method described by […] et al.. Two stages; planktonic, T0 and biofilm formation, T24 were investigated against the 24 h prepared bacterial cultures. One hundred microliters of each standardised bacterial culture (OD590 1 × 10^6 cfu/mL) was aliquoted into wells of a sterile flat bottomed 96-well microplate. Plates prepared for 24 h biofilm formation were immediately sealed with an adhesive sealer, placed in the incubator and incubated for 24 h at 37 °C. […] To the plates prepared for 0 h, the samples were added immediately. Wells containing cultures only, as well as acetone and sterile distilled water used to prepare the samples were included as controls. All plates after the addition of samples were sealed and incubated for 24 h to enable the samples to react with the biofilms. The incubated plates were washed with sterile distilled water three to four times after incubation to remove the unattached cells and were placed in the oven at 60 °C for 45 min. To all wells, 100 μL of 1% crystal violet dissolved in distilled water was added and plates were incubated for 15 min at room temperature after which the plates were washed again with sterile distilled water to remove unabsorbed stain. One hundred and twenty-five microliters of 100% ethanol was added to destain the wells. From the wells, 100 μL of the destaining solution was transferred to a new plate and semi-quantitative assessment of biofilm formation was done by measuring absorbance at 590 nm using SoftMax […] software on a microplate reader (SpectraMax M2). The mean absorbance of the samples was determined, and percentage inhibition was obtained using the equation below: percentage inhibiton=mean of culture control-mean of sample/mean of culture controlx100
# E. coli [3] = test: Cell adhesion to BSA-coated polystyrene surface; assay type: cell-based, Escherichia coli; conditions: 1 mg/mL, polystyrene microplate
# Protocol: as §1
# [4] = test system: E. coli (ATCC 25922) biofilm; test: Biofilm inhibition, crystal violet staining; assay type: cell-based, Escherichia coli; conditions: planktonic (0 h) and biofilm (24 h) stages, 1 mg/mL and MIC level
# Protocol: as §2, with “All plates after the addition of samples were sealed and incubated for 24 h to enable the samples to react with the biofilms. The incubated plates were washed with sterile distilled water three to four times after incubation to remove the unattached cells and were placed in the oven at 60 °C for 45 min. To all wells, 100 μL of 1% crystal violet dissolved in distilled water was added and plates were incubated for 15 min at room temperature after which the plates were washed again with sterile distilled water to remove unabsorbed stain. One hundred and twenty-five microliters of 100% ethanol was added to destain the wells.” left out
# E. coli [5] = test: Metabolic activity inhibition (INT); assay type: cell-based, Escherichia coli
# Protocol: (§3) The ability of the isolated compounds to inhibit the bacterial metabolic activity was tested against E. coli and S. aureus following the method used by Ramage and Lopez-Ribot with slight modification. The organisms were inoculated in a 96-well microplate following the same biofilm assay procedure described above. The final concentration of each compound in the wells was 0.016 mg/mL, 0.031 mg/mL, 0.063 mg/mL, 0.125 mg/mL and 1 mg/mL respectively. After 24 h of incubation with samples, the plates were washed three times with sterile distilled water and 50 μL of 1 mg/mL INT was added to each well and further incubated in the dark for 2 h. After incubation, absorbance was read at 490 nm using a microplate reader and the percentages of reduction of bacterial metabolic activity in the presence of different concentrations of compounds were calculated using the formula:
# (§4) percentage inhibiton=mean of culture control−mean of sample/mean of culture controlx100
# S. aureus [6] = test: Metabolic activity inhibition (INT); assay type: cell-based, Staphylococcus aureus
# Protocol: as §3, §4
SMILES,Selectivity index (LC50/MIC) (Vero monkey kidney cells; C. neoformans 48 h),Selectivity index (LC50/MIC) (Vero monkey kidney cells; C. neoformans 72 h),Selectivity index (LC50/MIC) (Vero monkey kidney cells; E. coli (1)),Selectivity index (LC50/MIC) (Vero monkey kidney cells; E. coli (2)),Selectivity index (LC50/MIC) (Vero monkey kidney cells; E. coli (3)),Selectivity index (LC50/MIC) (Vero monkey kidney cells; K. pneumoniae),Selectivity index (LC50/MIC) (Vero monkey kidney cells; S. aureus),Adherence inhibition (verdict in words) (S. aureus [1]),Biofilm inhibition (verdict in words) [2],Adherence inhibition (verdict in words) (E. coli [3]),Biofilm inhibition (verdict in words) [4],Metabolic activity inhibition (verdict in words) (E. coli [5]),Metabolic activity inhibition (verdict in words) (S. aureus [6]),"Metabolic activity inhibition (verdict in words) (S. aureus [6]; planktonic stage, MIC of 0.063 mg/mL)",Selectivity index (LC50/MIC) (Vero monkey kidney cells; A. fumigatus 48 h),Biofilm inhibition ([2]; at 24 h)
"COc1ccc(C2CC(=O)c3c(OC)cc(OC)cc3O2)cc1 (racemic) [Compound 2, (±)-4′,5,7-trimethoxy flavanone]",12.625,1.616,6.515,6.452,6.452,1.616,6.516,weak,good and poor inhibition and good inhibitory activity,weak,good and good activity and good inhibitory activity,good,good,did not show inhibition,–,–
"COc1ccc(-c2oc3cc(OC)cc(O)c3c(=O)c2OC)cc1 [Compound 3, 5-hydroxy-3,7,4′-trimethoxyflavone]",–,–,3.127,0.788,0.788,1.576,12.313,weak,good and good inhibitory activity,weak,good and good activity and good inhibitory activity,good,good,–,6.355,higher than 50%
